“And” between values parts separate entries of the source, which are not always exact repeats. Equal entries are not always repeated. The source made the active and inactive calls.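 Rule for the calls: active = compounds giving half or more protection of infected cells from virus-caused growth loss, again on retest; inactive = the rest.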
Test system: CEM cells HIV-1 protection, formazan growth assay
Test: NCI AIDS Antiviral Assay
Details: for IC50: measured here: growth of uninfected CEM cells
Procedure, shortened: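 Protection of CEM cells against HIV-1 measured as cell growth via soluble formazan read-out, with five concentrations tested on both infected and uninfected cells; failure to protect may reflect toxicity.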

Row | Compound | EC50 | IC50 | outcome
1 | N#Cc1ccc(N2CCOCC2)cc1 | 195 µM | > 200 µM | 
2 | CC(=O)NNC(=S)/N=C/C(C(=O)Nc1ccc([N+](=O)[O-])cc1)=C(\C)O | 117 µM | 170 µM | 
3 | CCOC(=O)C1Cc2c(n(C3CCCCC3)c(=O)n(C)c2=O)OC1c1ccccc1 (centres undefined) | > 63.1 µM | 29.5 µM | 
4 | CCC/C(Cl)=N/OC(=O)Nc1cc(C(F)(F)F)ccc1OC | > 200 µM | 3.39 µM | 
5 | COc1ccc(/C=C2/SC(=S)NC2=O)c(OC)c1OC | > 200 µM | 7.76 µM | 
6 | CC1=C(C(=O)O)CCC2(C)C3=C(CCC12)C(=O)C(C(C)C)=CC3=O (centres undefined) | > 200 µM | 12.3 µM | 
7 | COC1(C)CP(=O)(OC(C)C)CC(C)=C1Cl (centres undefined) | > 20 µM | 7.59 µM | 
8 | NCCN(CCN)CCN | > 151 µM | > 151 µM | 
9 | COCCN(CCNC(=O)c1cccc2c(N)c3cccc(C)c3nc12)CCOC | > 2 µM | 0.269 µM | 
10 | ClC(Cl)[Si]12OCCN(CCO1)CCO2 |  |  | inactive
11 | COC(=O)c1cc2cnc1CSCc1cnc(c(C(=O)OC)c1)CSC2 | > 200 µM | > 200 µM | 
12 | Cc1cc2ncn(C3CCCO3)c2cc1C (centres undefined) | > 200 µM | > 200 µM | 
13 | NC(Cc1ccc(O)cn1)C(=O)NC(C(=O)O)c1ccccc1 (centres undefined) | > 200 µM | > 200 µM | 
14 | O=c1cc(-c2ccccc2)oc2ccc(-c3ccc4oc(-c5ccccc5)cc(=O)c4c3)cc12 | > 200 µM | 27.5 µM | 
15 | Cc1nc2ccc(S(=O)(=O)Nc3ccccn3)cc2c(=O)n1NS(=O)(=O)c1ccccn1 | > 200 µM | > 200 µM | 
16 | CC(C)=N.[C-]#[O+].[C-]#[O+].[C-]#[O+].[C-]#[O+].[C-]#[O+].[W] | > 13.8 µM | > 13.8 µM | 
17 | C=C1C2CCC3(CCC4C5(C)CCCC4(CN(C(C)=O)C5)C3C2)C1O (centres undefined) |  |  | inactive
18 | c1ccc(-c2nc3nc4ccccc4nc3nc2-c2cccnc2)nc1 | > 8.13 µM | > 8.13 µM | 
19 | OCCCCCCCCCCCOc1ccc(C2OCC3(CO2)COC(c2ccc(OCCCCCCCCCCCO)cc2)OC3)cc1 (centres undefined) | > 50.1 µM | > 50.1 µM | 
20 | Nc1nc(Cl)cc(NCCCCCCCCNc2cc(Cl)nc(N)n2)n1 |  |  | inactive
21 | CCN(CC)CCSc1c2ccccc2nc2c(OC)ccc(OC)c12 |  |  | inactive
22 | O=C1CCC(c2nc3ccccc3o2)C(=O)N1 (centres undefined) | > 1070 µM | > 1070 µM | 

Row | Compound | EC50 | IC50 | outcome
23 | Cc1cnc2sn(-c3ccc([N+](=O)[O-])cc3)c(=O)c2c1 | 7.59 µM | 107 µM | 
24 | NCCCCC(NC(=O)C(CS)NC(=O)C(N)Cc1cnc[nH]1)C(=O)NC(Cc1ccccc1)C(=O)NC(Cc1c[nH]c2ccccc12)C(=O)NC(Cc1c[nH]c2ccccc12)C(N)=O (centres undefined) | > 50.1 µM | > 50.1 µM | 
25 | COc1cc2c(cc1OC)C(Cc1ccccc1CCCl)=NCC2 | > 200 µM | 29.5 µM | 
26 | O=C(OCCN1CCCCC1)C(c1ccccc1)C1(O)CCSCC1 (centres undefined) | > 200 µM | > 200 µM | 
27 | Nc1cnc2c(c1)c(=O)nc1n2CCS1 | > 200 µM | 117 µM | 
28 | Nc1nc(N)c2cc(Sc3ccc4nc(N)nc(N)c4c3)ccc2n1 | > 0.2 µM | 0.0708 µM | 
29 | C/C=C/COC(=O)CO[N+](=O)[O-] |  |  | inactive
30 | CC(=O)[CH-]C(C)=O.CC(=O)[CH-]C(C)=O.CCCNCCN.[Cr+5].[O-][Cl+3]([O-])([O-])[O-] | > 200 µM | > 200 µM | 
31 | CCOC(=O)/C(=C/c1ccc(F)cc1)C(=O)c1ccccc1 | > 17.4 µM | > 17.4 µM | 
32 | Cc1ccc(N/C(Sc2ccccc2)=C(/C(Cl)=C(Cl)Cl)[N+](=O)[O-])c(C)c1 | > 200 µM | 27.5 µM | 
33 | C=C=C(CC(CC(=C)Br)(C(=O)OC)C(=O)OC)S(=O)(=O)c1ccccc1 | > 200 µM | 1.45 µM | 
34 | O=S1(=O)C(c2ccccc2)=C(O)c2cc3ccccc3nc21 |  |  | inactive
35 | Cc1cn(C2CCC(COP(=O)(OCC(=O)C(C)(C)C)OCC(=O)C(C)(C)C)O2)c(=O)[nH]c1=O (centres undefined) | 30.9 µM | > 200 µM | 
36 | COC(=O)[C@H](COC(C)(C)C)NC(=O)N[C@H](C)c1ccccc1 | > 200 µM | > 200 µM | 
37 | Nc1c2ccccc2nc2nccnc12 | > 26.3 µM | > 26.3 µM | 
38 | O=C1SCC(O)=C1/C=N/Nc1nc2ccccc2o1 | > 50.1 µM | 2.63 µM | 
39 | C=CC[N+](CC)(CC)Cc1ccc(C[N+](CC)(CC)CC=C)cc1 | > 513 µM | > 513 µM | 
40 | CC1(C)S[C@@H]2[C@H](NC(=O)C3(N)CCCCC3)C(=O)N2[C@H]1C(=O)O | > 200 µM | > 200 µM | 
41 | CN(C)CC[PH+](c1ccccc1)c1ccccc1.CN(C)CC[PH+](c1ccccc1)c1ccccc1.[Cl-].[Pd+2] | > 200 µM | > 200 µM | 
42 | Clc1ccc(-c2cn3c(nc4ccccc43)c(-c3ccccc3)n2)cc1 | > 200 µM | 72.4 µM | 
43 | CN(C)c1ccc(/C=C(\C#N)c2ccc(Br)cc2Br)cc1 | > 200 µM | 3.39 µM | 
44 | Clc1cc(Cl)c(OCC#CI)cc1Cl | > 200 µM | 6.92 µM | 

Row | Compound | EC50 | IC50 | outcome
45 | CCCCNC(=S)/N=C/c1c(O)c2ccccc2[nH]c1=O | > 200 µM | > 200 µM | 
46 | O=C(OCCN1CCCC1)c1cc2ccccc2n1Cc1ccccc1 | > 200 µM | 36.3 µM | 
47 | CN=C1CN=C(OP(=O)(N2CCOCC2)N2CCOCC2)c2cc(Cl)ccc2N1 | > 6.17 µM | > 6.17 µM | 
48 | Cc1ccc(S(=O)(=O)CNC(=S)CCCC(=S)NCS(=O)(=O)c2ccc(C)cc2)cc1 |  |  | inactive
49 | COC(=O)c1ccc2n[se]nc2c1 |  |  | inactive
50 | COc1ccc(/C=C2\c3cc(OC)c(OC)cc3CCN2C(=O)c2ccccc2)cc1OC | > 200 µM | 57.5 µM | 
51 | CCCCN1C[C@H](OC(=O)CCC)[C@@H](OC(=O)CCC)[C@H](OC(=O)CCC)[C@H]1COC(=O)CCC | > 200 µM | > 200 µM | 
52 | O=c1n(CC2CO2)c(=O)n(CC2CO2)c(=O)n1CC1CO1 (centres undefined) | > 832 µM | 1.51 µM | 
53 | CCC1C(=O)N(C)c2ccccc21 (centres undefined) | > 200 µM | 117 µM and 33.1 µM | 
54 | COc1ccc2nc3c([N+](=O)[O-])ccc4c3c(c2c1)N=CN4CCCN(C)C | 0.141 µM | 0.468 µM | 
55 | Cc1nnc(NC(=O)c2cc(=O)c3ccccc3o2)s1 | > 91.2 µM | > 91.2 µM | 
56 | COc1ccc(/C=C(\C#N)c2ccc(C)cc2)cc1OC | > 200 µM | 33.1 µM | 
57 | COC(C(=O)C(O)C(C)O)C1Cc2cc3cc(OC4CC(OC5CC(O)C(O)C(C)O5)C(O)C(C)O4)c(C)c(O)c3c(O)c2C(=O)C1OC1CC(OC2CC(O)C(OC3CC(C)(O)C(O)C(C)O3)C(C)O2)C(O)C(C)O1 (centres undefined) |  |  | inactive
58 | CCCN(CCCC(NC(C)=O)C(=O)NCc1ccccc1)C(=O)NC (centres undefined) | > 692 µM | > 692 µM | 
59 | COc1cc(Oc2c(O)c(C)c(OC)c(C(C)=O)c2O)c(C(C)=O)c(O)c1C | > 93.3 µM | > 93.3 µM | 
60 | COc1ccc(C(=O)/C=C/c2ccc(OCC(=O)N3CCN(c4ccccc4)CC3)cc2)cc1 | > 29.5 µM | > 29.5 µM | 
61 | O=c1[nH]c(=S)[nH]c2c1sc(=S)n2-c1ccccc1 | > 89.1 µM | > 89.1 µM | 
62 | CCO/C=C1\N=C(C(Cl)c2ccccc2)OC1=O (centres undefined) | > 135 µM | > 135 µM | 
63 | CCOC(=O)c1c[nH]c2cc(OCC3CC3)c(OCC3CC3)cc2c1=O | > 200 µM | > 200 µM | 
64 | COc1ccccc1NCc1cccc2c(=O)c3ccc(Cl)cc3oc12 | > 151 µM | 46.8 µM | 

From PubChem BioAssay AID179 (DTP/NCI, 2004)
